Results as given in publication PMC10023679, “Amide-to-ester substitution as a stable alternative to N-methylation for increasing membrane permeability in cyclic peptides” (Nature Communications, 2023).
Non-standard residues stand in square brackets, D forms with d. Residues, ends and D or L forms follow the SMILES beside them. NMeF = CN[C@@H](Cc1ccccc1)C(=O)O; PhLac = O=C(O)[C@@H](O)Cc1ccccc1; Hica(2S) = CC(C)C[C@H](O)C(=O)O; NMeL = CN[C@@H](CC(C)C)C(=O)O; dHica = CC(C)C[C@@H](O)C(=O)O; dNMeL = CN[C@H](CC(C)C)C(=O)O

Assays:
[1] = in vitro; assay type: in vitro ADME
[2] = 1,9-decadiene-water distribution coefficient; assay type: physicochemical; conditions: decadiene and aqueous buffer
[3] = Caco-2 assay (permeability across cell monolayers); assay type: in vitro ADME; conditions: Caco-2, 1 μM compounds in HBSS (pH 7.4) containing 10 mM HEPES and 1% DMSO, 3 h incubation at 37 °C, read-out: Caco-2 permeability Pa
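Wherever Pe (PAMPA), CP1-Y1F-L2K series is given: filter plate membrane of 1% soybean lecithin in dodecane, donor and acceptor in 5% DMSO/PBS, incubated at 25 °C, peptide in both compartments measured by LC-MS.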

SMILES	Papp at 16 h, 3 μM ([1]; PAMPA) [×10⁻⁶ cm/s]	Papp ([1]; PAMPA) [×10⁻⁶ cm/s]	further results
CC(C)C[C@@H]1C(=O)N[C@H](C(C)C)C(=O)N[C@H](C)C(=O)N2CCC[C@@H]2C(=O)N[C@H](CC(C)C)C(=O)N[C@H](C(C)C)C(=O)N[C@H](C)C(=O)N2CCC[C@@H]2C(=O)N1C (cyclo([dA][dP][dL][dV][dA][dP][dNMeL][dV]))	0.01	–	–
CC(C)C[C@@H]1C(=O)N[C@H](C(C)C)C(=O)N[C@H](C)C(=O)N2CCC[C@@H]2C(=O)O[C@H](CC(C)C)C(=O)N[C@H](C(C)C)C(=O)N[C@H](C)C(=O)N2CCC[C@@H]2C(=O)N1C (cyclo([dA][dP][dNMeL][dV][dA][dP][dHica][dV]))	0.03	–	–
CC(C)C[C@@H]1NC(=O)[C@H](CC(C)C)N(C)C(=O)[C@@H](C(C)C)NC(=O)[C@H](C)NC(=O)[C@H](C)NC(=O)[C@H]2CCCN2C(=O)[C@@H](CC(C)C)NC(=O)[C@@H]2CCCN2C(=O)[C@H](CC(C)C)NC1=O (relative stereo)	0.1	–	–
CC(C)C[C@@H]1NC(=O)[C@H](CC(C)C)N(C)C(=O)[C@@H](C(C)C)NC(=O)[C@H](C)NC(=O)[C@H](C)OC(=O)[C@H]2CCCN2C(=O)[C@@H](CC(C)C)NC(=O)[C@@H]2CCCN2C(=O)[C@H](CC(C)C)NC1=O (relative stereo)	1.1	–	–
CC(C)C[C@@H]1NC(=O)[C@@H](CC(C)C)NC(=O)[C@H](CCCCN)NC(=O)[C@H](Cc2ccccc2)N(C)C(=O)[C@H]2CCCN2C(=O)[C@H](CC(C)C)NC1=O [CP1-Y1F-L2K NMe] (cyclo(K[dL]LL[dP][NMeF]))	–	< 0.00075	–
CC(C)C[C@@H]1NC(=O)[C@@H](CC(C)C)NC(=O)[C@H](CCCCN)NC(=O)[C@H](Cc2ccccc2)OC(=O)[C@H]2CCCN2C(=O)[C@H](CC(C)C)NC1=O [CP1-Y1F-L2K O] (cyclo(K[dL]LL[dP][PhLac]))	–	0.0049	Pe (PAMPA), CP1-Y1F-L2K series [1]: 4.9 ×10⁻⁶ cm/s
CC(C)C[C@@H]1NC(=O)[C@@H](CC(C)C)NC(=O)[C@H](CCCCN)NC(=O)[C@H](Cc2ccccc2)NC(=O)[C@H]2CCCN2C(=O)[C@H](CC(C)C)NC1=O [CP1-Y1F-L2K] (cyclo(FK[dL]LL[dP]))	–	< 0.0007	–
CC(C)C[C@@H]1NC(=O)[C@@H](CC(C)C)NC(=O)[C@H](CO)NC(=O)[C@H](Cc2ccccc2)N(C)C(=O)[C@H]2CCCN2C(=O)[C@H](CC(C)C)NC1=O [CP1-Y1F-L2S NMe] (cyclo(LL[dP][NMeF]S[dL]))	–	0.5	–
CC(C)C[C@@H]1NC(=O)[C@@H](CC(C)C)NC(=O)[C@H](CO)NC(=O)[C@H](Cc2ccccc2)OC(=O)[C@H]2CCCN2C(=O)[C@H](CC(C)C)NC1=O [CP1-Y1F-L2S O] (cyclo(LL[dP][PhLac]S[dL]))	–	4.1	–
CC(C)C[C@@H]1NC(=O)[C@@H](CC(C)C)NC(=O)[C@H](CO)NC(=O)[C@H](Cc2ccccc2)NC(=O)[C@H]2CCCN2C(=O)[C@H](CC(C)C)NC1=O [CP1-Y1F-L2S] (cyclo(FS[dL]LL[dP]))	–	0.3	–
CC(=O)N[C@@H](Cc1ccccc1)C(=O)O[C@@H](Cc1ccccc1)C(N)=O [D1]	–	–	log Ddec/w (1,9-decadiene–water distribution coefficient) [2]: –1.17 ± 0.01; Papp ([1]; PAMPA, pH 7.4): 1.2 ×10⁻⁶ cm/s
CC(C)C[C@@H]1NC(=O)[C@H]2CCCN2C(=O)[C@H](CC(C)C)N(C)C(=O)[C@@H](C(C)C)NC(=O)[C@H](CC(C)C)NC(=O)[C@H]2CCCN2C(=O)[C@H](CC(C)C)N(C)C(=O)[C@@H](C(C)C)NC1=O [D8.21, reference compound] (cyclo(L[dV][NMeL][dP]L[dV][NMeL][dP]))	8.2	–	–
CC(C)C[C@@H]1NC(=O)[C@H]2CCCN2C(=O)[C@H](CC(C)C)NC(=O)[C@@H](C(C)C)NC(=O)[C@H](CC(C)C)NC(=O)[C@H]2CCCN2C(=O)[C@H](CC(C)C)N(C)C(=O)[C@@H](C(C)C)NC1=O [D8.21-amide] (cyclo(L[dP]L[dV][NMeL][dP]L[dV]))	1.6	–	–
CC(C)C[C@@H]1NC(=O)[C@H]2CCCN2C(=O)[C@H](CC(C)C)OC(=O)[C@@H](C(C)C)NC(=O)[C@H](CC(C)C)NC(=O)[C@H]2CCCN2C(=O)[C@H](CC(C)C)N(C)C(=O)[C@@H](C(C)C)NC1=O [D8.21-ester] (cyclo(L[dV][NMeL][dP]L[dV][Hica(2S)][dP]))	5.8	–	–
CC(C)C[C@@H]1C(=O)N[C@H](C(C)C)C(=O)N[C@H](C)C(=O)N2CCC[C@@H]2C(=O)N(C)[C@H](CC(C)C)C(=O)N[C@H](C(C)C)C(=O)N[C@H](C)C(=O)N2CCC[C@@H]2C(=O)N1C [D8.31, reference compound] (cyclo([dA][dP][dNMeL][dV][dA][dP][dNMeL][dV]))	0.2	–	–
CC(C)C[C@@H]1NC(=O)[C@@H](CC(C)C)OC(=O)[C@H](CC(C)C)NC(=O)[C@H](Cc2ccc(O)cc2)NC(=O)[C@H]2CCCN2C(=O)[C@H](CC(C)C)NC1=O [DP3] (cyclo(LL[dP]YL[dHica]))	–	1.3	Papp [3]: 0.2 ×10⁻⁶ cm/s
CC(C)C[C@@H]1NC(=O)[C@H](Cc2ccc(O)cc2)NC(=O)[C@H]2CCCN2C(=O)[C@H](CC(C)C)NC(=O)[C@H](CC(C)C)OC(=O)[C@@H](CC(C)C)NC1=O [DP4] (cyclo(L[dL][Hica(2S)]L[dP]Y))	–	4.2	Papp [3]: 1.2 ×10⁻⁶ cm/s
CC(C)C[C@@H]1NC(=O)[C@H](Cc2ccc(O)cc2)NC(=O)[C@H]2CCCN2C(=O)[C@H](CC(C)C)OC(=O)[C@H](CC(C)C)NC(=O)[C@@H](CC(C)C)NC1=O [DP5] (cyclo(L[dL]L[Hica(2S)][dP]Y))	–	4.4	Papp [3]: 2.8 ×10⁻⁶ cm/s
CC(=O)N[C@@H](Cc1ccccc1)C(=O)N(C)[C@@H](Cc1ccccc1)C(N)=O [M1] (Ac-Phe-[NMeF]-NH2)	–	–	log Ddec/w (1,9-decadiene–water distribution coefficient) [2]: –1.24 ± 0.01
CC(=O)N[C@@H](CC(C)C)C(=O)N(C)[C@@H](Cc1ccccc1)C(N)=O [M2] (Ac-Leu-[NMeF]-NH2)	–	–	log Ddec/w (1,9-decadiene–water distribution coefficient) [2]: –1.62 ± 0.02; Papp ([1]; PAMPA, pH 7.4): 0.2 ×10⁻⁶ cm/s
CC(=O)N[C@@H](CC(C)C)C(=O)N(C)[C@@H](CC(C)C)C(N)=O [M3]	–	–	log Ddec/w (1,9-decadiene–water distribution coefficient) [2]: –2.13 ± 0.02; Papp ([1]; PAMPA, pH 7.4): 0.1 ×10⁻⁶ cm/s
CC(C)C[C@@H]1NC(=O)[C@@H](CC(C)C)NC(=O)[C@H](CC(C)C)N(C)C(=O)[C@H](Cc2ccc(O)cc2)NC(=O)[C@H]2CCCN2C(=O)[C@H](CC(C)C)NC1=O [MP2] (cyclo(LL[dP]Y[NMeL][dL]))	–	1	Papp [3]: 0.3 ×10⁻⁶ cm/s
CC(C)C[C@@H]1NC(=O)[C@@H](CC(C)C)N(C)C(=O)[C@H](CC(C)C)NC(=O)[C@H](Cc2ccc(O)cc2)NC(=O)[C@H]2CCCN2C(=O)[C@H](CC(C)C)NC1=O [MP3] (cyclo(LL[dP]YL[dNMeL]))	–	–	Papp at 3 h, 1 μM ([3]; human): 0.2 ×10⁻⁶ cm/s; Papp at 16 h, 2 μM ([1]; PAMPA): 0.6 ×10⁻⁶ cm/s
CC(C)C[C@@H]1NC(=O)[C@H](Cc2ccc(O)cc2)NC(=O)[C@H]2CCCN2C(=O)[C@H](CC(C)C)NC(=O)[C@H](CC(C)C)N(C)C(=O)[C@@H](CC(C)C)NC1=O [MP4] (cyclo(L[dL][NMeL]L[dP]Y))	–	2.5	Papp [3]: 0.5 ×10⁻⁶ cm/s
CC(C)C[C@@H]1NC(=O)[C@H](Cc2ccc(O)cc2)NC(=O)[C@H]2CCCN2C(=O)[C@H](CC(C)C)N(C)C(=O)[C@H](CC(C)C)NC(=O)[C@@H](CC(C)C)NC1=O [MP5] (cyclo(L[NMeL][dP]YL[dL]))	–	1.7	Papp [3]: 1.2 ×10⁻⁶ cm/s
CC(=O)N[C@@H](Cc1ccccc1)C(=O)N[C@@H](Cc1ccccc1)C(N)=O [P1] (Ac-Phe-Phe-NH2)	–	–	log Ddec/w (1,9-decadiene–water distribution coefficient) [2]: –2.75 ± 0.01
